Source: patent publication US7067549B2, “Pyrrolidone carboxamides” (Actelion Pharmaceuticals AG, priority 2001, dated 2006)

These molecules were tested against T1, mouse NPY-Y5 receptors (mNPY-Y5) (Mus musculus, UniProt O70342) (assay: Radioligand competition binding (125I-PYY) on membranes of HEK293 cells expressing recombinant mouse NPY-Y5 receptor). Conditions: displacement of 100 pM 125I-labeled PYY, 1 h at 22° C., read-out: NPY5 IC50.
T1 construct: The full-length cDNA which contains the mouse NPY-Y5 (mNPY-Y5) receptor coding was amplified from mouse brain cDNA; expressed in transfected cells
T1 sequence (O70342 1-466): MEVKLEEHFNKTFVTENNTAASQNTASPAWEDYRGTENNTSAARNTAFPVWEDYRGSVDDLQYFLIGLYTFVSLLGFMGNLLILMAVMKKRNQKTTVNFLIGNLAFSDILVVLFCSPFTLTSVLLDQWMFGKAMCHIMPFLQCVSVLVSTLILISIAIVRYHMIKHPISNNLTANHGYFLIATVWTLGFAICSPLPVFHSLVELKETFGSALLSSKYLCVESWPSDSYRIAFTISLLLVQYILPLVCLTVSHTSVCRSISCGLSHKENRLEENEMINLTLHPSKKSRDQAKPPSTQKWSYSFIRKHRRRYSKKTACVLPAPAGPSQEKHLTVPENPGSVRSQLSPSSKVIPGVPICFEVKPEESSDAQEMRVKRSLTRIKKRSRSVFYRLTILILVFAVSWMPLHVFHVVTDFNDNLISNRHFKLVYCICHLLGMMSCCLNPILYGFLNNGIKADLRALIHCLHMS
Text: The full-length cDNA which contains the mouse NPY-Y5 (mNPY-Y5) receptor coding was amplified from mouse brain cDNA using specific primers, which were custom-made on the basis of published sequences, and employing Pfu DNA polymerase (Stratagene). The amplification product was subcloned into a mammalian expression vector pcDNA3 using EcoRI and XhoI restriction sites. Positive clones were sequenced; one clone, which contained the published sequence, was selected for preparing stable cell clones.
Human embryonic kidney 293 (HEK293) cells were transfected with 10 μg of mNPY5 DNA using Lipofectamine reagent (Gibco BRL) in accordance with the manufacturer's instructions. Two days after the transfection, the geneticin selection (1 mg/ml) was initiated and several stable clones were isolated. One of the clones was used for further pharmacological characterization.
Human embryonic kidney cells (HEK293) which express recombinant mouse NPY-Y5 receptors (mNPY-Y5) were disrupted by being frozen/thawed three times in hypotonic Tris buffer (5 mM, pH 7.4, 1 mM MgCl2), after which they were homogenized and centrifuged at 72 000 G for 15 minutes. The precipitate was washed twice with Tris buffer (pH 7.4) containing 25 mM MgCl2, 250 mM sucrose, 0.1 mM phenylmethylsulfonyl fluoride and 0.1 mM 1,10-phenanthroline, then resuspended in the same buffer and stored in aliquots at −80° C. The protein was determined by the Lowry method using bovine serum albumin (BSA) as the standard.
The competition binding analysis was carried out in 250 μl of 25 mM Hepes buffer (pH 7.4, 2.5 mM CaCl2, 1 mM MgCl2, 1% bovine serum albumin and 0.01% sodium azide) which 5 μg of protein, 100 pM ^125I-labeled peptide YY (PYY) and 10 μl of a DMSO solution containing increasing quantities of DMSO solution containing unlabeled test compound. After a one-hour incubation at 22° C., the bound ligand was separated from the unbound ligand by means of filtration through a glass fiber filter. Nonspecific binding was determined in the presence of 1 μM unlabeled PYY. Specific binding is defined as the difference between total binding and nonspecific binding. An IC50 value is defined as the concentration of the antagonist which displaces 50% of the ^125I-labeled […]. This concentration is determined by linear regression analysis following logit/log transformation of the binding values.
`CCOC(=O)CN(c1ccccc1)c1ccc(NC(=O)C2CC(=O)N(c3cc(C)ccc3C)C2)cc1` (racemic) [rac. Ethyl [(4-{[1-(2,5-dimethylphenyl)-5-oxopyrrolidine-3-carbonyl]amino}phenyl)phenylamino]acetate] showed an IC50 of 13 nM. For `CCOC(=O)CN(c1ccccc1)c1ccc(NC(=O)C2CC(=O)N(c3cc(OC)ccc3C)C2)cc1` (racemic) [rac. Ethyl [(4-{[1-(5-methoxy-2-methylphenyl)-5-oxopyrrolidine-3-carbonyl]amino}phenyl)phenylamino]acetate], the IC50 was 46 nM. For `CCN(CC)c1ccc(NC(=O)C2CC(=O)N(c3cc(C)ccc3C)C2)cc1` (racemic) [rac. N-(4-Diethylaminophenyl)-1-(2,5-dimethylphenyl)-5-oxopyrrolidine-3-carboxamide], the IC50 was 9 nM. Work on `Cc1ccc(C)c(N2CC(C(=O)Nc3ccc(C(C)C)cc3)CC2=O)c1` (racemic) [rac. N-(4-Isopropylphenyl)-1-(2,5-dimethylphenyl)-5-oxopyrrolidine-3-carboxamide] yielded an IC50 of 45 nM. `Cc1ccc(C)c(N2CC(C(=O)Nc3ccc(Nc4ccccc4)cc3)CC2=O)c1` (racemic) [rac. N-(4-Phenylaminophenyl)-1-(2,5-dimethylphenyl)-5-oxopyrrolidine-3-carboxamide] gave an IC50 of 30 nM. `CC(C)c1ccccc1N1CC(C(=O)Nc2ccc(Nc3ccccc3)cc2)CC1=O` (racemic) [rac. N-(4-Phenylaminophenyl)-1-(2-isopropylphenyl)-5-oxopyrrolidine-3-carboxamide] was tested, and the IC50 was 41 nM. With `CCn1c2ccccc2c2cc(NC(=O)C3CC(=O)N(Cc4ccc(OC)cc4OC)C3)ccc21` (racemic) [rac. N-(9-Ethyl-9H-carbazol-3-yl)-1-(2,4-dimethoxybenzyl)-5-oxopyrrolidine-3-carboxamide] the IC50 was 20 nM. `CCn1c2ccccc2c2cc(NC(=O)C3CC(=O)N(Cc4ccccc4Cl)C3)ccc21` (racemic) [rac. N-(9-Ethyl-9H-carbazol-3-yl)-1-(2-chlorobenzyl)-5-oxopyrrolidine-3-carboxamide] gave an IC50 of 20 nM. With `CCn1c2ccccc2c2cc(NC(=O)C3CC(=O)N(CC(O)c4ccccc4)C3)ccc21` (racemic) [rac. N-(9-Ethyl-9H-carbazol-3-yl)-1-(2-hydroxy-2-phenylethyl)-5-oxopyrrolidine-3-carboxamide] the IC50 was 8 nM. With `CCn1c2ccccc2c2cc(NC(=O)C3CC(=O)N(c4ccccc4C(C)C)C3)ccc21` (racemic) [rac. N-(9-Ethyl-9H-carbazol-3-yl)-1-(2-isopropylphenyl)-5-oxopyrrolidine-3-carboxamide] the IC50 was 10 nM. `CCn1c2ccccc2c2cc(NC(=O)C3CC(=O)N(CCN4CCOCC4)C3)ccc21` (racemic) [rac. N-(9-Ethyl-9H-carbazol-3-yl)-1-(2-morpholin-4-ylethyl)-5-oxopyrrolidine-3-carboxamide] gave an IC50 of 10 nM. For `CCn1c2ccccc2c2cc(NC(=O)C3CC(=O)N(c4cccc(F)c4)C3)ccc21` (racemic) [rac. N-(9-Ethyl-9H-carbazol-3-yl)-1-(3-fluorophenyl)-5-oxopyrrolidine-3-carboxamide], the IC50 was 30 nM. Work on `CCn1c2ccccc2c2cc(NC(=O)C3CC(=O)N(c4cccc(OC)c4)C3)ccc21` (racemic) [rac. N-(9-Ethyl-9H-carbazol-3-yl)-1-(3-methoxyphenyl)-5-oxopyrrolidine-3-carboxamide] yielded an IC50 of 20 nM. `CCn1c2ccccc2c2cc(NC(=O)C3CC(=O)N(Cc4ccc(Cl)cc4)C3)ccc21` (racemic) [rac. N-(9-Ethyl-9H-carbazol-3-yl)-1-(4-chlorobenzyl)-5-oxopyrrolidine-3-carboxamide] was tested, and the IC50 was 10 nM. With `CCn1c2ccccc2c2cc(NC(=O)C3CC(=O)N(c4ccc(C(C)C)cc4)C3)ccc21` (racemic) [rac. N-(9-Ethyl-9H-carbazol-3-yl)-1-(4-isopropylphenyl)-5-oxopyrrolidine-3-carboxamide] the IC50 was 30 nM. For `CCn1c2ccccc2c2cc(NC(=O)C3CC(=O)N(c4cc(OC)ccc4C)C3)ccc21` (racemic) [rac. N-(9-Ethyl-9H-carbazol-3-yl)-1-(5-methoxy-2-methylphenyl)-5-oxopyrrolidine-3-carboxamide], the IC50 was 10 nM. `CCn1c2ccccc2c2cc(NC(=O)C3CC(=O)N(Cc4ccccc4)C3)ccc21` (racemic) [rac. N-(9-Ethyl-9H-carbazol-3-yl)-1-benzyl-5-oxopyrrolidine-3-carboxamide] showed an IC50 of 32 nM. Molecule `CCn1c2ccccc2c2cc(NC(=O)C3CC(=O)N(C4CCCCCC4)C3)ccc21` (racemic) [rac. N-(9-Ethyl-9H-carbazol-3-yl)-1-cycloheptyl-5-oxopyrrolidine-3-carboxamide] has an IC50 of 15 nM. In the case of `CCn1c2ccccc2c2cc(NC(=O)C3CC(=O)N(Cc4ccco4)C3)ccc21` (racemic) [rac. N-(9-Ethyl-9H-carbazol-3-yl)-1-furan-2-ylmethyl-5-oxopyrrolidine-3-carboxamide], the IC50 is reported as 10 nM. `CCn1c2ccccc2c2cc(NC(=O)C3CC(=O)N(C4Cc5ccccc5C4)C3)ccc21` (racemic) [rac. N-(9-Ethyl-9H-carbazol-3-yl)-1-indan-2-yl-5-oxopyrrolidine-3-carboxamide] showed an IC50 of 32 nM. `CCn1c2ccccc2c2cc(NC(=O)C3CC(=O)N(CCc4ccccn4)C3)ccc21` (racemic) [rac. N-(9-Ethyl-9H-carbazol-3-yl)-5-oxo-1-(2-pyridin-2-ylethyl)pyrrolidine-3-carboxamide] gave an IC50 of 3 nM. `CCn1c2ccccc2c2cc(NC(=O)C3CC(=O)N(CCc4cccs4)C3)ccc21` (racemic) [rac. N-(9-Ethyl-9H-carbazol-3-yl)-5-oxo-1-(2-thiophen-2-ylethyl)pyrrolidine-3-carboxamide] showed an IC50 of 10 nM. `CCn1c2ccccc2c2cc(NC(=O)C3CC(=O)N(c4ccc(C)cc4)C3)ccc21` (racemic) [rac. N-(9-Ethyl-9H-carbazol-3-yl)-5-oxo-1-p-tolylpyrrolidine-3-carboxamide] was tested, and the IC50 was 30 nM. In the case of `CCn1c2ccccc2c2cc(NC(=O)C3CC(=O)N(CCc4ccccc4)C3)ccc21` (racemic) [rac. N-(9-Ethyl-9H-carbazol-3-yl)-5-oxo-1-phenethylpyrrolidine-3-carboxamide], the IC50 is reported as 12 nM. `CCn1c2ccccc2c2cc(NC(=O)C3CC(=O)N(c4ccccc4)C3)ccc21` (racemic) [rac. N-(9-Ethyl-9H-carbazol-3-yl)-5-oxo-1-phenylpyrrolidine-3-carboxamide] gave an IC50 of 21 nM. In the case of `CCn1c2ccccc2c2cc(NC(=O)C3CC(=O)N(Cc4cccs4)C3)ccc21` (racemic) [rac. N-(9-Ethyl-9H-carbazol-3-yl)-5-oxo-1-thiophen-2-ylmethylpyrrolidine-3-carboxamide], the IC50 is reported as 10 nM. Work on `Cc1ccc(C)c(N2CC(C(=O)Nc3ccc(-c4ccccc4)cc3)CC2=O)c1` (racemic) [rac. N-(Biphenyl-4-yl)-1-(2,5-dimethylphenyl)-5-oxopyrrolidine-3-carboxamide] yielded an IC50 of 34 nM. For `Cc1ccc(C)c(N2CC(C(=O)Nc3ccc(Nc4nc(C)cc(C)n4)cc3)CC2=O)c1` (racemic) [rac. N-[4-(4,6-Dimethylpyrimidin-2-ylamino)phenyl]-1-(2,5-dimethylphenyl)-5-oxopyrrolidine-3-carboxamide], the IC50 was 20 nM. For `Cc1cc(C)nc(Nc2ccc(NC(=O)C3CC(=O)N(c4ccccc4C(C)C)C3)cc2)n1` (racemic) [rac. N-[4-(4,6-Dimethylpyrimidin-2-ylamino)phenyl]-1-(2-isopropylphenyl)-5-oxopyrrolidine-3-carboxamide], the IC50 was 25 nM.
